One assay addresses kappa opioid receptor (Homo sapiens, UniProt P41145). Description: Radioligand binding assay, [3H]U69593, membranes of CHO cells transfected with human kappa opioid receptor. Conditions: CHO cell membranes, read-out: Receptor Binding Ki (nM) κ.
The next assay deals with mu opioid receptor (Homo sapiens, UniProt P35372). Description: Radioligand binding assay, [3H]DAMGO, membranes of CHO cells transfected with human mu opioid receptor. As to conditions: CHO cell membranes, read-out: Receptor Binding Ki (nM) μ.
Sequence of mu opioid receptor (P35372 whole entry): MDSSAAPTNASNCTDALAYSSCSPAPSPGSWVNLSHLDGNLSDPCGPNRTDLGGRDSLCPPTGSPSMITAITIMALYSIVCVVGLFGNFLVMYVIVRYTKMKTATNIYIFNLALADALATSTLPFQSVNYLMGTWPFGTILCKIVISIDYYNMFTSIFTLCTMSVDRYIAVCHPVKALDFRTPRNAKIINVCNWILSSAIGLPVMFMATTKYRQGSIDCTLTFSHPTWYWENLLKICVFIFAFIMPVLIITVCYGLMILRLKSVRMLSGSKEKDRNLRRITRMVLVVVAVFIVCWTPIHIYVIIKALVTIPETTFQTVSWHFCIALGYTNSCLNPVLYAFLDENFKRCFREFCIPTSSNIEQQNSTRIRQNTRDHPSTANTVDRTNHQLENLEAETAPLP

Molecules are shown by their SMILES. Where two headings read alike, the source gives them in different places.

Sequence of kappa opioid receptor (P41145 whole entry): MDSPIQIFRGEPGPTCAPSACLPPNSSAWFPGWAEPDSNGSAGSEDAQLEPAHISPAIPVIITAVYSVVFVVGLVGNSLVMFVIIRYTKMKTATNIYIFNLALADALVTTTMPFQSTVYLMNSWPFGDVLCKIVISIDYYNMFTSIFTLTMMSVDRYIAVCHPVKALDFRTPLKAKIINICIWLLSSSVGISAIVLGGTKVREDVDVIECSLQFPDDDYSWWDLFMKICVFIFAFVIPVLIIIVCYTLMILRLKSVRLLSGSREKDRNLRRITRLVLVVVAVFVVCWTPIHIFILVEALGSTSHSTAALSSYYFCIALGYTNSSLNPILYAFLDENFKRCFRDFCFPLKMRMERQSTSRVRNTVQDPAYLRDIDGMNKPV

What is called Ki is a measure of affinity in units of concentration, obtained from inhibition or displacement. Turning to `CC(C)[C@H]1CC[C@@H](N2CCC(n3ccc4ccccc43)CC2)CC1` [Compound 61, syn-1-(1-(4-isopropylcyclohexyl)piperidin-4-yl)-1H-indole], the Ki at kappa opioid receptor (Compounds of Formula (II)) and on mu opioid receptor (Compounds of Formula (II)) was 150 to 5000 nM in each case.

Regarding `CC(C)[C@H]1CC[C@@H](N2CCC(n3cc(CN4CC[C@@H](O)C4)c4ccccc43)CC2)CC1` [Compound 66, (R)-1-((1-(1-(cis-4-isopropylcyclohexyl)piperidin-4-yl)-1H-indol-3-yl)methyl)pyrrolin-3-ol], the Ki at kappa opioid receptor (Compounds of Formula (II)) was over 5000 nM; on mu opioid receptor (Compounds of Formula (II)), 150 to 5000 nM.

Consider `CC(C)[C@H]1CC[C@@H](N2CCC(n3cc(CN4CC(O)C4)c4ccccc43)CC2)CC1` [Compound 67, 1-((1-(1-(cis-4-isopropylcyclohexyl)piperidin-4-yl)-1H-indol-3-yl)methyl)azetidin-3-ol], for which the Ki on kappa opioid receptor (Compounds of Formula (II)) and at mu opioid receptor (Compounds of Formula (II)) was over 5000 nM throughout.

For `CC(C)[C@H]1CC[C@@H](N2CCC(n3cc(CN4CCC(O)CC4)c4ccccc43)CC2)CC1` [Compound 68], the Ki at kappa opioid receptor (Compounds of Formula (II)) is 150 to 5000 nM; at mu opioid receptor (Compounds of Formula (II)), over 5000 nM.

For the compound `CC(C)[C@H]1CC[C@@H](N2CCC(n3cc(CN4CCC(N)CC4)c4ccccc43)CC2)CC1` [Compound 69, 1-((1-(1-(cis-4-isopropylcyclohexyl)piperidin-4-yl)-1H-indol-3-yl)methyl)piperidin-4-amine], the Ki at kappa opioid receptor (Compounds of Formula (II)) and at mu opioid receptor (Compounds of Formula (II)) was 150 to 5000 nM each time.

For the compound `CC(C)[C@H]1CC[C@@H](N2CCC(n3cc(CNCCO)c4ccccc43)CC2)CC1` [Compound 70], the Ki on kappa opioid receptor (Compounds of Formula (II)) and at mu opioid receptor (Compounds of Formula (II)) was 150 to 5000 nM each time.

As to `CCNCC(=O)NCc1cn(C2CCN([C@H]3CC[C@@H](C(C)C)CC3)CC2)c2ccccc12` [Compound 76], the inhibition constant (Ki) on kappa opioid receptor (Compounds of Formula (II)) and at mu opioid receptor (Compounds of Formula (II)) was 150 to 5000 nM throughout.

`CC(C)[C@H]1CC[C@@H](N2CCC(n3cc(CNC(=O)C(N)CCCNC(=N)N)c4ccccc43)CC2)CC1` (stereo partly shown) [Compound 80]: the inhibitory constant (Ki) on kappa opioid receptor (Compounds of Formula (II)) and on mu opioid receptor (Compounds of Formula (II)) was 150 to 5000 nM throughout.

As to `CC(C)[C@H]1CC[C@@H](N2CCC(n3cc(CN(C)C)c4ccccc43)CC2)CC1` [Compound 84], the Ki on mu opioid receptor (Compounds of Formula (II)) lay within 150 to 5000 nM.

Regarding `CC(C)[C@H]1CC[C@@H](N2CCC(n3cc(CCN)c4ccccc43)CC2)CC1` [Compound 86, 2-(1-(1-(cis-4-isopropylcyclohexyl)piperidin-4-yl)-1H-indol-3-yl)ethan-1-amine], the Ki at kappa opioid receptor (Compounds of Formula (II)) and on mu opioid receptor (Compounds of Formula (II)) was 150 to 5000 nM throughout.

Turning to `CCOC(=O)NCCc1cn(C2CCN([C@H]3CC[C@@H](C(C)C)CC3)CC2)c2ccccc12` [Compound 94], the results for the inhibition constant (Ki) on kappa opioid receptor (Compounds of Formula (II)) and on mu opioid receptor (Compounds of Formula (II)) were over 5000 nM and 150 to 5000 nM, respectively.

In the case of `CC(C)[C@H]1CC[C@@H](N2CCC(n3cc(CCCNC(N)=S)c4ccccc43)CC2)CC1` [Compound 96], the inhibition constant Ki at kappa opioid receptor (Compounds of Formula (II)) and at mu opioid receptor (Compounds of Formula (II)) was 150 to 5000 nM throughout.

For `CC(C)[C@H]1CC[C@@H](N2CCC3(CC2)C(=O)N(CC(N)=O)Cc2cc(-c4ccccc4)ccc23)CC1` [Compound 345, 2-(1′-(cis-4-isopropyl-cyclohexyl)-3-oxo-7-phenyl-1H-spiro [isoquinoline-4,4′-piperidin]-2(3H)-yl) acetamide], the Ki on kappa opioid receptor (Compounds of Formula (IV)) and on mu opioid receptor (Compounds of Formula (IV)) was 150 to 5000 nM in each case.

The record behind these values is USRE49825E1, “Piperidinyl nociceptin receptor compounds” (Astraea Therapeutics, LLC, priority 2015, dated 2024).
